Laboratory results published in patent US9763925B2, “Antibacterial compounds” (SUMMIT THERAPEUTICS PLC, priority 2008, dated 2017).
Converted amounts (≈) assume the structure as drawn.

What was measured:
[1] = tested on: Streptococcus pneumoniae ATCC49619; test: MIC by broth microdilution against Streptococcus pneumoniae ATCC49619; conditions: ATCC49619, read-out: MIC (ATCC49619)
[2] = tested on: Staphylococcus aureus ATCC29213; test: MIC by broth microdilution against Staphylococcus aureus ATCC29213; conditions: ATCC29213, read-out: MIC (ATCC29213)
[3] = tested on: MDR Streptococcus pneumoniae strain (MDR); test: MIC by broth microdilution against MDR Streptococcus pneumoniae; conditions: read-out: MIC (MDR)
[4] = tested on: MDR Staphylococcus aureus strain (MDR); test: MIC by broth microdilution against MDR Staphylococcus aureus; conditions: read-out: MIC (MDR)
Enterococcus faecium = test: MIC by broth microdilution against Enterococcus faecium
[5] = tested on: Clostridium perfringens clinical isolate (CI); test: microbe, parasite or virus in culture; assay type: cell-based; conditions: read-out: MIC (CI)
[6] = tested on: MDR Enterococcus faecium strain (MDR); test: MIC by broth microdilution against MDR Enterococcus faecium; conditions: read-out: MIC (MDR)
[7] = tested on: Clostridium perfringens ATCC13124; test: microbe, parasite or virus in culture; assay type: cell-based; conditions: ATCC13124, read-out: MIC (ATCC13124)
[8] = tested on: Clostridium difficile ATCC700057; test: microbe, parasite or virus in culture; assay type: cell-based; conditions: for MIC: Clostridioides difficile, ATCC700057, read-out: MIC (ATCC700057)
Bacillus subtilis = assay type: cell-based

| SMILES | MIC [1] | MIC [2] | MIC [3] | MIC [4] | MIC (Enterococcus faecium) | MIC [5] | MIC [6] | MIC [7] | MIC [8] | antibacterial activity against Bacillus subtilis (Bacillus subtilis) | selectivity for Clostridium difficile [8] |
| --- | --- | --- | --- | --- | --- | --- | --- | --- | --- | --- | --- |
| Oc1ccc(-c2nc3cc(-c4ccc5[nH]c(-c6ccc(O)cc6)nc5c4)ccc3[nH]2)cc1 [Compound 3, 4,4′-(1H,1′H-5,5′-bibenzo[d]imidazole-2,2′-diyl)diphenol] | < 1 µg/mL | < 1 µg/mL | < 1 µg/mL | < 1 µg/mL | < 1 µg/mL | 1 to 16 µg/mL (≈ 2.39 to 38.2 µM) | < 1 µg/mL | 1 to 16 µg/mL (≈ 2.39 to 38.2 µM) | < 1 µg/mL | – | – |
| COc1ccc(-c2nc3ccc(-c4ccc5[nH]c(-c6ccccc6)nc5c4)cc3[nH]2)cc1 [Compound 10, 2′-(4-methoxyphenyl)-2-phenyl-1H,3′H-5,5′-bibenzo[d]imidazole] | < 1 µg/mL | < 1 µg/mL | < 1 µg/mL | < 1 µg/mL | < 1 µg/mL | < 1 µg/mL | < 1 µg/mL | 1 to 16 µg/mL (≈ 2.4 to 38.4 µM) | < 1 µg/mL | – | – |
| Nc1ccc(-c2nc3cc(-c4ccc5[nH]c(-c6ccccc6)nc5c4)ccc3[nH]2)cc1 [Compound 9, 4-(2′-phenyl-1H,1′H-5,5′-bibenzo[d]imidazol-2-yl)aniline] | < 1 µg/mL | 1 to 16 µg/mL (≈ 2.49 to 39.9 µM) | < 1 µg/mL | 1 to 16 µg/mL (≈ 2.49 to 39.9 µM) | < 1 µg/mL | 1 to 16 µg/mL (≈ 2.49 to 39.9 µM) | < 1 µg/mL | 17 to 64 µg/mL (≈ 42.3 to 159 µM) | 1 to 16 µg/mL (≈ 2.49 to 39.9 µM) | – | – |
| Nc1cccc(-c2nc3cc(-c4ccc5[nH]c(-c6cccc(N)c6)nc5c4)ccc3[nH]2)c1 [Compound 2, 3,3′-(1H,1′H-5,5′-bibenzo[d]imidazole-2,2′-diyl)dianiline] | 1 to 16 µg/mL (≈ 2.4 to 38.4 µM) | 1 to 16 µg/mL (≈ 2.4 to 38.4 µM) | 1 to 16 µg/mL (≈ 2.4 to 38.4 µM) | > 64 µg/mL | 1 to 16 µg/mL (≈ 2.4 to 38.4 µM) | > 64 µg/mL | 1 to 16 µg/mL (≈ 2.4 to 38.4 µM) | > 64 µg/mL | 1 to 16 µg/mL (≈ 2.4 to 38.4 µM) | – | – |
| Nc1ccc(-c2nc3cc(-c4ccc5nc(-c6ccc(N)cc6)[nH]c5c4)ccc3[nH]2)cc1 [Compound 1, 4,4′-(1H,3′H-5,5′-bibenzo[d]imidazole-2,2′-diyl)dianiline] | < 1 µg/mL | < 1 µg/mL | < 1 µg/mL | < 1 µg/mL | < 1 µg/mL | < 1 µg/mL | < 1 µg/mL | < 1 µg/mL | < 1 µg/mL | – | – |
| Cn1c(-c2ccc(N)cc2)nc2cc(-c3ccc4[nH]c(-c5ccc(N)cc5)nc4c3)ccc21 [Compound 5, 4,4′-(1-methyl-1H,1′H-5,5′-bibenzo[d]imidazole-2,2′-diyl)dianiline] | < 1 µg/mL | 1 to 16 µg/mL (≈ 2.32 to 37.2 µM) | < 1 µg/mL | 1 to 16 µg/mL (≈ 2.32 to 37.2 µM) | < 1 µg/mL | 1 to 16 µg/mL (≈ 2.32 to 37.2 µM) | < 1 µg/mL | 1 to 16 µg/mL (≈ 2.32 to 37.2 µM) | 1 to 16 µg/mL (≈ 2.32 to 37.2 µM) | – | – |
| Nc1ccc(-c2nc3cc(-c4ccc5[nH]c(-c6ccc(N)nc6)nc5c4)ccc3[nH]2)cn1 [Compound 11, 5,5′-(1H,1′H-5,5′-bibenzo[d]imidazole-2,2′-diyl)dipyridin-2-amine] | < 1 µg/mL | > 64 µg/mL | < 1 µg/mL | > 64 µg/mL | 1 to 16 µg/mL (≈ 2.39 to 38.2 µM) | > 64 µg/mL | 1 to 16 µg/mL (≈ 2.39 to 38.2 µM) | 17 to 64 µg/mL (≈ 40.6 to 153 µM) | < 1 µg/mL | – | – |
| Nc1ccc(-c2nc3cc(-c4ccc5[nH]cnc5c4)ccc3[nH]2)cc1 [Compound 8, 4-(1H,1′H-5,5′-bibenzo[d]imidazol-2-yl)aniline] | 1 to 16 µg/mL (≈ 3.07 to 49.2 µM) | 1 to 16 µg/mL (≈ 3.07 to 49.2 µM) | 1 to 16 µg/mL (≈ 3.07 to 49.2 µM) | 17 to 64 µg/mL (≈ 52.2 to 197 µM) | 1 to 16 µg/mL (≈ 3.07 to 49.2 µM) | 1 to 16 µg/mL (≈ 3.07 to 49.2 µM) | 1 to 16 µg/mL (≈ 3.07 to 49.2 µM) | 17 to 64 µg/mL (≈ 52.2 to 197 µM) | 1 to 16 µg/mL (≈ 3.07 to 49.2 µM) | – | – |
| CNc1ccc(-c2nc3cc(-c4ccc5[nH]c(-c6ccc(NC)cc6)nc5c4)ccc3[nH]2)cc1 [Compound 6, 4,4′-(1H,1′H-5,5′-bibenzo[d]imidazole-2,2′-diyl)bis(N-methylaniline)] | < 1 µg/mL | < 1 µg/mL | < 1 µg/mL | < 1 µg/mL | < 1 µg/mL | 1 to 16 µg/mL (≈ 2.25 to 36 µM) | < 1 µg/mL | 1 to 16 µg/mL (≈ 2.25 to 36 µM) | 1 to 16 µg/mL (≈ 2.25 to 36 µM) | – | – |
| COc1ccc(-c2nc3cc(-c4ccc5[nH]c(-c6ccc(OC)cc6)nc5c4)ccc3[nH]2)cc1 [Compound 7, 2,2′-bis(4-methoxyphenyl)-1H,1′H-5,5′-bibenzo[d]imidazole] | < 1 µg/mL | < 1 µg/mL | < 1 µg/mL | < 1 µg/mL | < 1 µg/mL | < 1 µg/mL | < 1 µg/mL | < 1 µg/mL | < 1 µg/mL | – | – |
| c1cc(-c2nc3cc(-c4ccc5[nH]c(-c6ccncc6)nc5c4)ccc3[nH]2)ccn1 [Compound 12, 2,2′-di(pyridin-4-yl)-1H,1′H-5,5′-bibenzo[d]imidazole] | < 1 µg/mL | > 64 µg/mL | < 1 µg/mL | > 64 µg/mL | > 64 µg/mL | > 64 µg/mL | > 64 µg/mL | > 64 µg/mL | < 1 µg/mL | no significant antibacterial activity | highly selective for Clostridium difficile |
| Cn1c(-c2ccc(N)cc2)nc2ccc(-c3ccc4[nH]c(-c5ccc(N)cc5)nc4c3)cc21 [Compound 4, 4,4′-(3′-methyl-1H,3′H-5,5′-bibenzo[d]imidazole-2,2′-diyl)dianiline] | < 1 µg/mL | > 64 µg/mL | 1 to 16 µg/mL (≈ 2.32 to 37.2 µM) | > 64 µg/mL | 1 to 16 µg/mL (≈ 2.32 to 37.2 µM) | > 64 µg/mL | < 1 µg/mL | > 64 µg/mL | 17 to 64 µg/mL (≈ 39.5 to 149 µM) | – | – |
